Calls of active or inactive are those of the source.

Data set [1] relates to CT26. The data set is described as follows: Immunological memory derived antitumor activity against mouse CT26 cells implanted in BALB/c mouse assessed as tumor growth regression at 200 mg/kg, po preadministered with compound for 2 weeks followed by reinoculation of CT26 cells and measured on day 19 relative to control. The note with it: time 19 day. The class given is functional.

Data set [2] has as its target Cytochrome P450 2C9 (Homo sapiens, UniProt P11712). The experiment in a line: Inhibition of CYP2C9 in human liver microsomes. Format: ADME, Microsome.
Data set [3] can be described thus: Half-life in BALB/c mouse at 20 mg/kg, po measured after 24 hrs by LC-MS/MS analysis. The class given is ADME, organism-based. Particulars: in vivo.
For data set [4], the target named is Stimulator of interferon genes protein (Homo sapiens) (UniProt Q86WV6). The data set is described as follows: Activation of STING-mediated immune response in STING knockout human THP-1 cells transfected with ISRE reporter assessed as increase in cGAMP-induced ISRE activation upto 50 uM preincubated with compound for 1 hrs followed by cGAMP addition and measured after 24 hrs by luciferase reporter gene assay. The class given is cell-based. The note with it: time 25.0 hrs. In general terms: A reporter such as luciferase makes a cellular process visible.

Data set [5] can be described thus: Toxicity in BALB/c mouse implanted with mouse CT26 cells assessed as effect on body weight at 200 mg/kg, po preadministered with compound for 2 weeks followed by reinoculation of CT26 cells and measured on day 19. Format: organism-based. Particulars: in vivo, 456 h, time 19 day.
Data set [6] can be described thus: Metabolic stability in human liver microsome assessed as parent compound remaining measured after 30 mins by LC/MS analysis. The class given is ADME. Particulars: liver microsomes, read-out: Stability.
A short description of data set [7]: Toxicity in BALB/c mouse implanted with mouse CT26 cells assessed as effect on body weight at 200 mg/kg, po preadministered with compound for 2 weeks followed by reinoculation of CT26 cells and measured on day 19 in the presence of anti-PD-L1 antibody. The note with it: in vivo, 456 h, time 19 day. The class given is organism-based.
Data set [8] can be described thus: AUC (0 to t) in BALB/c mouse at 20 mg/kg, po measured after 24 hrs by LC-MS/MS analysis. Also noted: time 24 hrs, dose 20 mg/kg, route po. The note with it: in vivo. Format: ADME, organism-based.
For data set [9], the target named is T1, Cytochrome P450 1A2 (Homo sapiens, UniProt P05177).
T1 sequence (P05177 whole entry): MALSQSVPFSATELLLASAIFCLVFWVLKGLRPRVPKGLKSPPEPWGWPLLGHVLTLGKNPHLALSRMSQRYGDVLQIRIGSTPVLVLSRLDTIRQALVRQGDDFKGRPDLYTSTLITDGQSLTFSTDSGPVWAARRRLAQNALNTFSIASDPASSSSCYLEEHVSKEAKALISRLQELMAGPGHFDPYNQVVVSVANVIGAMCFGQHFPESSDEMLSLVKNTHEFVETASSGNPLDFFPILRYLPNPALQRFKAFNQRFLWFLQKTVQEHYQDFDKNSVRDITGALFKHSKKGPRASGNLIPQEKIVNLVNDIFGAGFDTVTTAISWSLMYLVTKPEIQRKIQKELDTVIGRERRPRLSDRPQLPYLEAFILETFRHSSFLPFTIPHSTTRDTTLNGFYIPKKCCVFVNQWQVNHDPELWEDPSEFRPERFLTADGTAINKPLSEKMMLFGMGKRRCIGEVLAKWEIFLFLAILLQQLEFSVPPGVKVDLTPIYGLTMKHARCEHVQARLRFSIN
The experiment in a line: Inhibition of CYP1A2 in human liver microsomes. The class given is ADME, Microsome.

In data set [10] the target is Stimulator of interferon genes protein (Homo sapiens) (UniProt Q86WV6). The experiment in a line: Activation of STING-mediated immune response in human THP-1 cells transfected with ISRE reporter assessed as increase in cGAMP-induced ISRE activation by measuring fold change at 25 to 50 uM preincubated with compound for 1 hrs followed by cGAMP addition and measured after 24 hrs by luciferase reporter gene assay. Format: cell-based. Particulars: filed as activator, dose 25-50 µM, time 25.0 hrs.

The nature of data set [11]: Cmax in BALB/c mouse at 5 mg/kg, iv measured after 24 hrs by LC-MS/MS analysis. Particulars: in vivo. The class given is ADME, organism-based. Details: dose 5 mg/kg, time 24 hrs, route iv.
Data set [12] is described as follows: AUC (0 to infinity) in BALB/c mouse at 5 mg/kg, iv measured after 24 hrs by LC-MS/MS analysis. The class given is ADME, organism-based. Also noted: dose 5 mg/kg, time 24 hrs, route iv. Particulars: in vivo.
For data set [13], the target named is Stimulator of interferon genes protein (Homo sapiens) (UniProt Q86WV6). The data set is described as follows: Activation of STING-mediated immune response in human HCT-116 cells transfected with ISRE reporter assessed as increase in cGAMP-induced ISRE activation preincubated with compound for 1 hrs followed by cGAMP addition and measured after 48 hrs by luciferase reporter gene assay. Format: cell-based. Particulars: filed as activator, dose <= 200.0 µM, time 49.0 hrs.

The nature of data set [14]: Metabolic stability in mouse liver microsome assessed as half-life by LC/MS analysis. The class given is ADME. The note with it: liver microsomes. For orientation: Liver microsomes are a subcellular fraction often used to study metabolism.
Data set [15] can be described thus: Metabolic stability in mouse liver microsome assessed as parent compound remaining measured after 30 mins by LC/MS analysis. The class given is ADME. The note with it: liver microsomes, read-out: Stability.
Data set [16] in a line: AUC (0 to t) in BALB/c mouse at 5 mg/kg, iv measured after 24 hrs by LC-MS/MS analysis. The class given is ADME, organism-based. Details: dose 5 mg/kg, time 24 hrs, route iv. Particulars: in vivo.
Data set [17] can be described thus: MRT (0 to t) in BALB/c mouse at 20 mg/kg, po measured after 24 hrs by LC-MS/MS analysis. Particulars: in vivo. The class given is ADME, organism-based.
Data set [18] can be described thus: Oral bioavailability in BALB/c mouse at 20 mg/kg measured after 24 hrs by LC-MS/MS analysis. The class given is ADME, organism-based. The note with it: in vivo.

Sequence of Stimulator of interferon genes protein (Homo sapiens) (Q86WV6 whole entry): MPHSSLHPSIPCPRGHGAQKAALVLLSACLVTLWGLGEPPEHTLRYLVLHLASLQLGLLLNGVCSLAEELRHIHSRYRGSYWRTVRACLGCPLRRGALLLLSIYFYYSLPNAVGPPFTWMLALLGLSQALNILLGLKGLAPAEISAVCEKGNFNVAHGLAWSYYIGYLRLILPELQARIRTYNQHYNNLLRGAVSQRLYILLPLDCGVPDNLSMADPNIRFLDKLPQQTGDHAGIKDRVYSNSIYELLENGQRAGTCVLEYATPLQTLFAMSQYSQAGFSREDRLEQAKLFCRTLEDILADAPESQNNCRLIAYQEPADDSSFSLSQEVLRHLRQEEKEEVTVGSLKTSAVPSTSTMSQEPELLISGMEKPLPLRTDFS
Sequence of Cytochrome P450 2C9 (P11712 whole entry): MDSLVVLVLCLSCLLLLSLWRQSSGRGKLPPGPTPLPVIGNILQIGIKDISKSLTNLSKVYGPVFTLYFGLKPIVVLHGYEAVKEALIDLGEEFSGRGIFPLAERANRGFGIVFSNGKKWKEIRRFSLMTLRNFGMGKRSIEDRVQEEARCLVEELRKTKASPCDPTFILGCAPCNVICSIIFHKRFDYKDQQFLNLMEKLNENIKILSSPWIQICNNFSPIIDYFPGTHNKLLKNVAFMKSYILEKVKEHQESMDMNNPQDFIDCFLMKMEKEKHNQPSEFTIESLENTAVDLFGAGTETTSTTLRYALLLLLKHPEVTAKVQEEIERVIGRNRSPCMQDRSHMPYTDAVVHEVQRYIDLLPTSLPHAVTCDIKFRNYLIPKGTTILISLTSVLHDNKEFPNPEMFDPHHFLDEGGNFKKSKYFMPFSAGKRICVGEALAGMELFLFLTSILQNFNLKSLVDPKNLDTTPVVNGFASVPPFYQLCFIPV

One may read the IC50 as the concentration needed to halve the response being measured. Higher therefore signals weaker potency. The half-life is the time needed for the level to fall by half in the phase considered. In general, AUC(0-t) refers to exposure summed from dosing to a finite time, without extrapolation to infinity. A high value points to more exposure. What is called Cmax is the highest concentration seen after dosing. Usually AUC(0-inf) stands for total exposure, with the tail of the curve extrapolated. The low end stands for low exposure, the high end for high exposure. Usually MRT last stands for the average time that molecules of a dose stay in the body. As a reminder, the bioavailability is the share of a dose that reaches the circulation, judged against a reference dose that is usually intravenous. As to `Cn1nc(Cc2ccc(NS(N)(=O)=O)cc2)c2ccccc2c1=O`, the Activity in [1] is 100%; in data set [5], “Non-Toxic”; in data set [7], “Non-Toxic”; in data set [13], “Dose-Dependent Effect”. In addition, the IC50 in data set [2] and in [9] was over 10 µM in each case. Also, the half-life in data set [3] is 2.8 h; in data set [14], 0.987 h. For the same molecule, in [4], the outcome was inactive. In addition, the figures for the remaining at 0.5 h in [6] and in data set [15] were 87% and 65%, respectively. Moreover, the AUC(0-t) at 24 h is 79400 ng·h/mL in data set [8] and 30400 ng·h/mL in [16]. Besides, the fold change (FC) in data set [10] is under 30. Further, the Cmax in data set [11] turned out to be 9540 ng/mL. The AUC(0-inf) in data set [12] was 30900 ng·h/mL. This molecule displayed a mean residence time (MRT last) at 24 h in data set [17] of 3.75 h. The bioavailability in data set [18] was found to be 65.4%.

The values are drawn from ChEMBL document CHEMBL5370672, “Discovery of Orally Bioavailable Phthalazinone Analogues as an ENPP1 Inhibitor for STING-Mediated Cancer Immunotherapy” (J Med Chem, 2023).
